Laboratory results taken from patent publication US7939552B2, “Benzyloxypropylamine derivative” (Nippon Zoki Pharmaceutical Co., Ltd., priority 2005, dated 2011).
Counter-ions that a name gives are not always drawn. Each block holds one molecule with its values, some of them ahead of it.

Molecular target: T1, human NK1 receptor (Homo sapiens, UniProt P25103)
T1 construct: expressed in transfected cells; host or cells: CHO cells (hNK1-CHO)
Assay: Human NK1 receptor binding assay (3H-Sar9-SP, hNK1-CHO cells)
Settings: room temperature 60 minutes
Protocol: A supernatant liquid was removed from an hNK1-CHO cell incubation flask in a confluent state, trypsin (0.25%)-EDTA (1 mmol/L) (Gibco) was added thereto and the cells were exfoliated and recovered. After they were washed with a buffer A (pH 7.5; 50 mmol/L Tris hydrochloride 50 mmol/L, 150 mmol/L NaCl and 0.02% BSA) for one time (at […] for 5 minutes), cell numbers were adjusted and re-floated on a buffer for assay {a buffer A to which 40 μg/mL bacitracin (Sigma), 4 μg/mL leupeptin (Sigma), 4 μg/mL chymostatin (Sigma) and 4 μg/mL phosphoramidon (Sigma) were added}. The hNK1-CHO cells (100 μL) were placed in a tube (TPX-12, Maruemu) in which 300 μL of the buffer for assay was charged so as to make cells 10^5 per tube, 50 μL of a hot solution (^3H-Sar^9-SP, final concentration: […]) and 50 μL of a substance to be tested were added (a system of 500 μL), stirred and made to react at room temperature for 60 minutes. After completion of the reaction, it was filtered through a GF/B filter (25 mm diameter, Whatman) which was previously dipped in 0.1% polyethyleneimine p-70 (Wako Pure Chemical), washed with the buffer A (4 mL each for three times), placed in a vial and dried at 60° C. for one night. After drying, 10 mL of a scintillator (AL-1, toluene base, Dojindo) was added thereto and dpm was measured by a liquid scintillation counter (for 5 minutes/vial).
With regard to a nonspecific binding, it was defined as the dpm when 10 μmol/L of the substance P was added instead of the substance to be tested. The experiment was conducted in duplicate and at least three experiments were repeated. IC50 value was calculated using a probit method (statistic library II, Yukms).

T1 sequence (P25103 whole entry): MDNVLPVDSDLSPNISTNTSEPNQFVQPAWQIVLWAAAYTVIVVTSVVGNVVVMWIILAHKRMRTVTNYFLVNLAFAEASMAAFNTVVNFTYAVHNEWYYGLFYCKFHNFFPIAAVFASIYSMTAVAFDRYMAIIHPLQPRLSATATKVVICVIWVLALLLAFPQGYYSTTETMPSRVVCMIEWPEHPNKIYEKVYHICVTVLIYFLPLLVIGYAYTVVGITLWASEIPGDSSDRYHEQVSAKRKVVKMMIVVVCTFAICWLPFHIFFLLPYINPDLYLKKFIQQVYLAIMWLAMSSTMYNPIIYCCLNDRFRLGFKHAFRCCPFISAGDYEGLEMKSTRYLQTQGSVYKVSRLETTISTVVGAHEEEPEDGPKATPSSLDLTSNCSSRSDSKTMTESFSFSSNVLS

Molecule: CN(CC(COCc1cc(C(F)(F)F)cc(C(F)(F)F)c1)c1ccc(F)cc1)C(=O)c1ccncc1 (stereo not drawn) [Compound 98, N-[3-(3,5-Bis(trifluoromethyl)benzyloxy)-2-(4-fluorophenyl)propyl]-N-methylisonicotinamide]
- IC50: 27 nM

Molecule: CN(CC(COCc1cc(C(F)(F)F)cc(C(F)(F)F)c1)c1ccccc1)C(=O)CCCCN (stereo not drawn) [Compound 106, 5-Aminopentanoic acid [3-(3,5-bis(trifluoromethyl)benzyloxy)-2-phenylpropyl]methylamide hydrochloride]
- IC50: 30.3 nM

Molecule: NCCC(=O)NCC(COCc1cc(C(F)(F)F)cc(C(F)(F)F)c1)c1ccccc1 (stereo not drawn) [Compound 74, 3-Amino-N-[3-(3,5-bis(trifluoromethyl)benzyloxy)-2-phenylpropyl]propionamide hydrochloride]
- IC50: 33.6 nM

Molecule: N-[3-(3,5-Bis(trifluoromethyl)benzyloxy)-2-(4-fluorophenyl)propyl]-N-methylpiperidine-4-carboxamide hydrochloride [Compound 97]
- IC50: 20.3 nM

Molecule: O=C(CN1CCC(N2CCCCC2)CC1)NCC(COCc1cc(C(F)(F)F)cc(C(F)(F)F)c1)c1ccccc1 (stereo not drawn) [Compound 91, N-[3-(3,5-Bis(trifluoromethyl)benzyloxy)-2-phenylpropyl]-2-[1,4′]bipiperidinyl-1′-ylacetamide dihydrochloride]
- IC50: 43.5 nM

Molecule: CN(CC(COCc1cc(C(F)(F)F)cc(C(F)(F)F)c1)c1ccccc1)C(=O)c1cc[n+]([O-])cc1 (stereo not drawn) [Compound 99, N-[3-(3,5-Bis(trifluoromethyl)benzyloxy)-2-phenylpropyl]-N-methyl-1-oxyisonicotinamide]
- IC50: 23.8 nM

Molecule: CN(CC(COCc1cc(C(F)(F)F)cc(C(F)(F)F)c1)c1ccccc1)C(=O)C1CCNCC1 (stereo not drawn) [Compound 93, N-[3-(3,5-Bis(trifluoromethyl)benzyloxy)-2-phenylpropyl]-N-methylpiperidine-4-carboxamide hydrochloride]
- IC50: 42.2 nM

Now from value to molecule:

- IC50: 19 nM
Molecule: NCCCCC(=O)NCC(COCc1cc(C(F)(F)F)cc(C(F)(F)F)c1)c1ccccc1 (stereo not drawn) [Compound 78, N-[3-(3,5-Bis(trifluoromethyl)benzyloxy)-2-phenylpropyl]-5-aminopentanoicamide hydrochloride]

- IC50: 6 nM
Molecule: O=C(NCC(COCc1cc(C(F)(F)F)cc(C(F)(F)F)c1)c1ccccc1)NC1CCNCC1 (stereo not drawn) [Compound 86, 1-[3-(3,5-Bis(trifluoromethyl)benzyloxy)-2-phenylpropyl]-3-piperidin-4-ylurea hydrochloride]

- IC50: 1.5 nM
Molecule: O=C(NCC(COCc1cc(C(F)(F)F)cc(C(F)(F)F)c1)c1ccc(F)cc1)c1cc[n+]([O-])cc1 (single isomer, unassigned; (-)) [(−)-Compound 21]

- IC50: 21 nM
Molecule: NCCC(=O)NCC(COCc1cc(C(F)(F)F)cc(C(F)(F)F)c1)c1ccc(F)cc1 (stereo not drawn) [Compound 76, 3-Amino-N-[3-(3,5-bis(trifluoromethyl)benzyloxy)-2-(4-fluorophenyl)propyl]propionamide hydrochloride]

- IC50: 8.6 nM
Molecule: NC1CCC(C(=O)NCC(COCc2cc(C(F)(F)F)cc(C(F)(F)F)c2)c2ccccc2)CC1 (stereo not drawn) [Compound 88, 4-Aminocyclohexanecarboxylic acid [3-(3,5-bis(trifluoromethyl)benzyloxy)-2-phenylpropyl]amide hydrochloride]

- IC50: 8.5 nM
Molecule: O=C(C=Cc1ccc[n+]([O-])c1)NCC(COCc1cc(C(F)(F)F)cc(C(F)(F)F)c1)c1ccccc1 (stereo not drawn) [Compound 54, N-[3-(3,5-Bis(trifluoromethyl)benzyloxy)-2-phenylpropyl]-3-(1-oxypyridin-3-yl)acrylamide]

- IC50: 9 nM
Molecule: O=C(NCC(COCc1cc(C(F)(F)F)cc(C(F)(F)F)c1)c1ccc(F)cc1)c1cc[n+]([O-])cc1 (single isomer, unassigned; (+)) [(+)-Compound 21]

- IC50: 15.4 nM
Molecule: CN(CC(COCc1cc(C(F)(F)F)cc(C(F)(F)F)c1)c1ccc(F)cc1)C(=O)C1CCNCC1 (stereo not drawn) [Compound 95, N-[3-(3,5-Bis(trifluoromethyl)benzyloxy)-2-(4-fluorophenyl)propyl]-N-methylpiperidine-4-carboxamide hydrochloride]
